Consider twelve compounds from patent publication US12564638B2 (SHANGHAITECH UNIVERSITY, priority 2019, dated 2026).

Holding throughout (assay type): cell-based
In assay [1] the test system is H1975 (EGFR T790M+L858R mutation, non-small cell lung cancer cell line). Put plainly: Cell viability assay (WST/CCK8), H1975 cells. The settings on record: Homo sapiens, read-out: IC50 (half inhibitory concentration). An excerpt:
(§1) The cell lines with abnormal EGFR expression used are as follows: • HCC827 cells (EGFR Exon19 del, non-small cell lung cancer cells); • PC9 cells (EGFR Exon 19 del, non-small cell lung cancer cells); • PC9BracA1 (EGFR Exon 19 del+T790M, non-small cell lung cancer cells) • H1975 (EGFR Exon T790M+L858R mutation, non-small cell lung cancer cell line) • BT474 cells (HER2 positive breast cancer cells)
(§2) All of the half inhibitory concentrations (IC50) of these compounds of the present invention were determined with WST reagent from Fuyuan Biotec Company. The specific experiment procedures are as follows: Cancer cells were planted in 96-well-plate at the density of 3 000 cells per well with 100 μL RPMI1640 completed culture medium. In the next day, compounds with indicated concentrations were added to the cells, DMSO was used as the negative control and the EGFR TKIs were used to treat cells as the positive groups. After 72 hours drug treatment, cell viability was measured by using the WST reagent following the instructions.

Assay [2] concerns PC9 cells (EGFR Exon 19 del, non-small cell lung cancer cells). The assay can be described thus: Cell viability assay (WST/CCK8), PC9 cells. Conditions: Homo sapiens, read-out: IC50 (half inhibitory concentration). A digest of the protocol: (§3)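 Plated 3 000 cells/well in complete RPMI1640 the day before dosing; controls were DMSO (negative) and EGFR TKIs (positive).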
The test system of assay [3] is PC9BracA1 (EGFR Exon 19 del+T790M, non-small cell lung cancer cells). The assay can be described thus: Cell viability assay (WST/CCK8), PC9Brac1 cells. Conditions: read-out: IC50 (half inhibitory concentration).
Text: as §1, §2

In assay [4] the test system is BT474 cells (HER2 positive breast cancer cells). Put plainly: Cell viability assay (CCK8), BT474 cells. The settings on record: Homo sapiens, BT-474, Table 10, BT474, 72 hours, read-out: IC50 (half inhibitory concentration). The essentials:
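HER2-overexpressing BT474 cells in RPMI1640 were exposed to compounds for 72 hours over 10 concentrations (3-fold dilution, top 10 μM). Viability was measured with CCK8 reagent against a DMSO control, and IC50 was taken from growth inhibition curves.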

For assay [5], the system named is HCC827 cells (EGFR Exon19 del, non-small cell lung cancer cells). The assay can be described thus: Cell viability assay (WST/CCK8), HCC827 cells. Conditions: Homo sapiens, HCC827, 72 h, read-out: IC50 (half inhibitory concentration). The essentials:
as §3

The mark [6] stands for this setting: NCI-H1975, Table 7, canertinib-based compounds, H1975 (L858R + T790M).
[7] abbreviates: PC-9, Table 6, canertinib-based compounds, PC9 (Exon19 Del), 72 hours, WST.
[8] abbreviates: Table 7, canertinib-based compounds, PC9Brca1 (Ex19del + T790M).
Setting [9] is: Table 6, canertinib-based compounds, HCC827 (Exon19 Del), 72 hours, WST.
Setting [10] is: NCI-H1975, Table 8, osimertinib-based compounds, H1975, 72 hours, WST.
Setting [11] is: PC-9, Table 8, osimertinib-based compounds, PC9, 72 hours, WST.
[12] abbreviates: Table 8, osimertinib-based compounds, Pc9Brc1, 72 hours, WST.
[13] abbreviates: Table 8, osimertinib-based compounds, HCC827, 72 hours, WST.

Where two headings read alike, the source gives them in different places.

For `C=CC(=O)Nc1cc2c(Nc3ccc(F)c(Cl)c3)ncnc2cc1OCCCN1CCC(N2CCN(C(=O)CCCCCCNc3cccc4c3C(=O)N(C3CCC(=O)NC3=O)C4=O)CC2)CC1` (stereo not shown) [SIAIS262179, N-(4-((3-chloro-4-fluorophenyl)amino)-7-(3-(4-(4-(7-((2-(2,6-dioxopiperidin-3-yl)-1,3-dioxoisoindolin-4-yl)amino)heptanoyl)piperazin-1-yl)piperidin-1-yl)propoxy)quinazolin-6-yl)acrylamide], the IC50 in assay [1] (setting [6]) was 43 nM; in assay [2] (setting [7]), 10.3 nM; in assay [3] (setting [8]) it was 181 nM; in assay [4], 14.6 nM; in assay [5] (setting [9]) it was 2.5 nM.
On the same counts, the results for `C=CC(=O)Nc1cc2c(Nc3ccc(F)c(Cl)c3)ncnc2cc1OCCCN1CCC(N2CCN(C(=O)CCCCCNc3cccc4c3C(=O)N(C3CCC(=O)NC3=O)C4=O)CC2)CC1` (stereo not shown) [SIAIS262178, N-(4-((3-chloro-4-fluorophenyl)amino)-7-(3-(4-(4-(6-((2-(2,6-dioxopiperidin-3-yl)-1,3-dioxoisoindolin-4-yl)amino)hexanoyl)piperazin-1-yl)piperidin-1-yl)propoxy)quinazolin-6-yl)acrylamide] are 38 nM, 0.4 nM, 69 nM, 2.1 nM and 5.2 nM.
Consider `C=CC(=O)Nc1cc2c(Nc3ccc(F)c(Cl)c3)ncnc2cc1OCCCN1CCC(N2CCN(CCCCCCNc3cccc4c3C(=O)N(C3CCC(=O)NC3=O)C4=O)CC2)CC1` (stereo not shown) [SIAIS262183, N-(4-((3-chloro-4-fluorophenyl)amino)-7-(3-(4-(4-(6-((2-(2,6-dioxopiperidin-3-yl)-1,3-dioxoisoindolin-4-yl)amino)hexyl)piperazin-1-yl)piperidin-1-yl)propoxy)quinazolin-6-yl)acrylamide], for which the IC50 in assay [1] (setting [6]) was found to be 250 nM; in assay [3] (setting [8]), 1060 nM; in assay [4], 11.9 nM.
Turning to `C=CC(=O)Nc1cc(Nc2nccc(-c3cn(C)c4ccccc34)n2)c(OC)cc1N(C)CCN(C)C` [Osimertinib, reference compound], the IC50 in assay [1] (NCI-H1975, 72 h) is 2 nM; in assay [2] (PC-9, 72 h) it was 4 nM; in assay [3] (72 h), 354 nM; in assay [5] it was 0.36 nM.
Turning to `C=CC(=O)Nc1cc(Nc2nccc(-c3cn(C)c4ccccc34)n2)c(OC)cc1N(C)CCN(C)C(=O)COCCOCCOCCSc1cccc2c1CN(C1CCC(=O)NC1=O)C2=O` (stereo not shown) [SIAIS337076, N-(2-((14-((2-(2,6-dioxopiperidin-3-yl)-1-oxoisoindolin-4-yl)thio)-3-methyl-4-oxo-6,9,12-trioxa-3-azatetradecyl)(methyl)amino)-4-methoxy-5-((4-(1-methyl-1H-indol-3-yl)pyrimidin-2-yl)amino)phenyl)acrylamide], the IC50 in assay [1] (setting [10]) turned out to be 187 nM; in assay [2] (setting [11]) it was 459 nM; in assay [3] (setting [12]) it was 303 nM; in assay [5] (setting [13]) it was 10 nM.
On to `C=CC(=O)Nc1cc(Nc2nccc(-c3cn(C)c4ccccc34)n2)c(OC)cc1N(C)CCN(C)CCCC#Cc1cccc2c1CN(C1CCC(=O)NC1=O)C2=O` (stereo not shown) [SIAIS337089, N-(2-((2-((5-(2-(2,6-dioxopiperidin-3-yl)-1-oxoisoindolin-4-yl)pent-4-yn-1-yl)(methyl)amino)ethyl)(methyl)amino)-4-methoxy-5-((4-(1-methyl-1H-indol-3-yl)pyrimidin-2-yl)amino)phenyl)acrylamide], for which the IC50 in assay [1] (setting [10]) came out at 16 nM; in assay [2] (setting [11]), 82 nM; in assay [3] (setting [12]), 107 nM; in assay [5] (setting [13]), 15 nM.
For the compound `C=CC(=O)Nc1cc(Nc2nccc(-c3cn(C)c4ccccc34)n2)c(OC)cc1N(C)CCN(C)CCCCCCCSc1cccc2c1CN(C1CCC(=O)NC1=O)C2=O` (stereo not shown) [SIAIS337083, N-(2-((2-((7-((2-(2,6-dioxopiperidin-3-yl)-1-oxoisoindolin-4-yl)thio)heptyl)(methyl)amino)ethyl)(methyl)amino)-4-methoxy-5-((4-(1-methyl-1H-indol-3-yl)pyrimidin-2-yl)amino)phenyl)acrylamide], the IC50 turned out to be 494 nM in assay [1] (setting [10]), 512 nM in assay [2] (setting [11]), 676 nM in assay [3] (setting [12]) and 46 nM in assay [5] (setting [13]).
Turning to `C=CC(=O)Nc1cc(Nc2nccc(-c3cn(C)c4ccccc34)n2)c(OC)cc1N(C)CCN(C)Cc1ccc(CSc2cccc3c2CN(C2CCC(=O)NC2=O)C3=O)cc1` (stereo not shown) [SIAIS337088, N-(2-((2-((4-(((2-(2,6-dioxopiperidin-3-yl)-1-oxoisoindolin-4-yl)thio)methyl)benzyl)(methyl)amino)ethyl)(methyl)amino)-4-methoxy-5-((4-(1-methyl-1H-indol-3-yl)pyrimidin-2-yl)amino)phenyl)acrylamide], the IC50 in assay [1] (setting [10]) is 239 nM; in assay [2] (setting [11]), 302 nM; in assay [3] (setting [12]), 662 nM; in assay [5] (setting [13]) it was 5 nM.
For `C=CC(=O)Nc1cc(Nc2nccc(-c3cn(C)c4ccccc34)n2)c(OC)cc1N(C)CCN(C)CCCCCCCCCCSc1cccc2c1CN(C1CCC(=O)NC1=O)C2=O` (stereo not shown) [SIAIS337086, N-(2-((2-((10-((2-(2,6-dioxopiperidin-3-yl)-1-oxoisoindolin-4-yl)thio)decyl)(methyl)amino)ethyl)(methyl)amino)-4-methoxy-5-((4-(1-methyl-1H-indol-3-yl)pyrimidin-2-yl)amino)phenyl)acrylamide], in that order: 203 nM, 64 nM, 194 nM and 3 nM.
For `C=CC(=O)Nc1cc(Nc2nccc(-c3cn(C)c4ccccc34)n2)c(OC)cc1N(C)CCN(C)CCCCCSc1cccc2c1CN(C1CCC(=O)NC1=O)C2=O` (stereo not shown) [SIAIS337081, N-(2-((2-((5-((2-(2,6-dioxopiperidin-3-yl)-1-oxoisoindolin-4-yl)thio)pentyl)(methyl)amino)ethyl)(methyl)amino)-4-methoxy-5-((4-(1-methyl-1H-indol-3-yl)pyrimidin-2-yl)amino)phenyl)acrylamide], in that order: 18 nM, 134 nM, 207 nM and 184 nM.
On the same counts, the results for `C=CC(=O)Nc1cc(Nc2nccc(-c3cn(C)c4ccccc34)n2)c(OC)cc1N(C)CCN(C)CCCCCCCC#Cc1cccc2c1CN(C1CCC(=O)NC1=O)C2=O` (stereo not shown) are 117 nM, 161 nM, 413 nM and 9 nM.
Take `C=CC(=O)Nc1cc(Nc2nccc(-c3cn(C)c4ccccc34)n2)c(OC)cc1N(C)CCN(C)CCCCCCCCCSc1cccc2c1CN(C1CCC(=O)NC1=O)C2=O` (stereo not shown) [SIAIS337085, N-(2-((2-((9-((2-(2,6-dioxopiperidin-3-yl)-1-oxoisoindolin-4-yl)thio)nonyl)(methyl)amino)ethyl)(methyl)amino)-4-methoxy-5-((4-(1-methyl-1H-indol-3-yl)pyrimidin-2-yl)amino)phenyl)acrylamide]: the IC50 in assay [1] (setting [10]) was 462 nM; in assay [2] (setting [11]), 143 nM; in assay [3] (setting [12]), 239 nM; in assay [5] (setting [13]) it was 6 nM.
